Results taken from ChEMBL document CHEMBL2169806, “Design, synthesis, and pharmacological evaluation of N-acylhydrazones and novel conformationally constrained compounds as selective and potent orally active phosphodiesterase-4 inhibitors” (J Med Chem, 2012).
Calls of active or inactive are those of the source. The calls are words filed in the database; no cut-off is given here.

Key:
Mus musculus [1] = test: Antiinflammatory activity in A/J mouse assessed as inhibition of leukocyte accumulation in bronchoalveolar space at 45 umol/kg, po administered 1 hr prior to LPS-challenge measured after 18 hrs relative to vehicle-treated control; type: functional; conditions: Lung
[2] = Inhibition of bovine PDE4 using [3H]cAMP as substrate; parameters: species or system Bos taurus
Mus musculus [3] = test: Antiinflammatory activity in A/J mouse assessed as inhibition of mononuclear cell accumulation in bronchoalveolar space at 45 umol/kg, po administered 1 hr prior to LPS-challenge measured after 18 hrs relative to vehicle-treated control; type: functional, organism-based; conditions: Lung
Mus musculus [4] = test: Antiinflammatory activity in A/J mouse assessed as inhibition of LPS-induced airway elastance provoked by methacholine at 45 umol/kg, po administered 1 hr prior to LPS-challenge measured after 18 hrs relative to vehicle-treated control; type: functional
Mus musculus [5] = test: Antiinflammatory activity in A/J mouse lung assessed as inhibition of LPS-induced TNFalpha production at 45 umol/kg, po administered 1 hr prior to LPS-challenge measured after 18 hrs relative to vehicle-treated control; type: functional
Mus musculus [6] = test: Antiinflammatory activity in A/J mouse assessed as inhibition of LPS-induced airway resistance provoked by methacholine at 45 umol/kg, po administered 1 hr prior to LPS-challenge measured after 18 hrs relative to vehicle-treated control; type: functional
Mus musculus [7] = test: Antiinflammatory activity in A/J mouse lung assessed as inhibition of LPS-induced IL6 production at 45 umol/kg, po administered 1 hr prior to LPS-challenge measured after 18 hrs relative to vehicle-treated control; type: functional
PBMC = test: Antiinflammatory activity in human PBMC assessed as inhibition of LPS-induced TNFalpha production after 24 hrs by ELISA; type: functional, cell-based
Mus musculus [8] = test: Antiinflammatory activity in A/J mouse assessed as inhibition of eosinophils accumulation in bronchoalveolar space at 45 umol/kg, po administered 1 hr prior to LPS-challenge measured after 18 hrs relative to vehicle-treated control; type: functional, organism-based; conditions: Lung
Mus musculus [9] = test: Antiinflammatory activity in A/J mouse assessed as inhibition of neutrophil accumulation in bronchoalveolar space at 45 umol/kg, po administered 1 hr prior to LPS-challenge measured after 18 hrs relative to vehicle-treated control; type: functional; conditions: Lung
Mus musculus [10] = test: Proemetic activity in A/J mouse assessed as reversal of xylazine/katamine-induced anesthesia at 1 to 50 umol/kg, sc administered 30 mins prior xylazine/ketamine-administration; type: ADME, organism-based; conditions: in vivo, 0.5 h

COc1ccc(C2CNC(=O)C2)cc1OC1CCCC1 (stereo unspecified) [ROLIPRAM]
inhibition in vivo at 45 µmol/kg (Mus musculus [1]): 70%
IC50 [2]: 800 nM
inhibition (Mus musculus [3]): Active
inhibition in vivo at 45 µmol/kg (Mus musculus [4]): 96%
inhibition in vivo at 45 µmol/kg (Mus musculus [5]): 69%
inhibition in vivo at 45 µmol/kg (Mus musculus [6]): 95%
inhibition in vivo at 45 µmol/kg (Mus musculus [7]): 54%
EC50 (PBMC): 130 nM
inhibition (Mus musculus [8]): Active
inhibition in vivo at 45 µmol/kg (Mus musculus [9]): 70%
Activity (Mus musculus [10]): Toxic
